# Results: patent publication US20240262806A1, “INHIBITORS OF NLRP3” (PTC THERAPEUTICS, INC., priority 2021, published 2024)
# System: NLRP3 inflammasome
# Test: IL-1β Secretion Assay (NLRP3-dependent IL-1β secretion in PMA-differentiated THP-1 cells, nigericin activation, HTRF)
# Assay type: cell-based
# Conditions: Homo sapiens, THP-1, THP-1 cells, 100 ng/mL PMA 24 h, compound 20 h, 2.5 μM Nigericin 3 h; read-out: IC50 IL-1β Inhibition
# Description: Cells were washed 1× with 100 ul PBS and replaced with fresh RPMI+5% FBS. Compounds were serial diluted in DMSO with 3 fold dilution for a total of 7 concentrations.
# Compounds, once produced and prepared according to the present invention, can be assessed in variety of assays to characterize their activities. […] IC50 values of IL1β inhibition were calculated from the plot of percentage of inhibition versus the inhibitor concentration by a logistics fit. TABLE I depict examples of compounds according to generic Formulae I. Data which is <1 nM is listed as *****; data 1-10 nM is listed as ****; data 10-100 nM is listed as ***, data 100-300 nM is listed as **, data >300 nM is listed as *.
row,Compound,IC50 [nM]
1,CN1CCC[C@@H](Nc2nnc(-c3ccc(C(F)(F)F)cc3OC(F)F)c3ccccc23)C1 [Compound I-120],1 to 10
2,Cc1cc(C#N)ccc1-c1nnc(N[C@@H]2CCCN(C)C2)c2cnccc12 [Compound I-217],10 to 100
3,CN1C[C@H](O)C[C@@H](Nc2nnc(-c3ccc(C(F)(F)F)cc3O)c3ccccc23)C1 [Compound I-84],10 to 100
4,"CN1CCC[C@@H](Nc2nnc(-c3ccc(Cl)cc3C(F)F)c3cccn23)C1 [Compound I-443, 1-[4-Chloro-2-(difluoromethyl)phenyl]-N-[(3R)-1-methyl-3-piperidyl]pyrrolo[1,2-d][1,2,4]triazin-4-amine]",1 to 10
5,Oc1cc(C(F)(F)F)ccc1-c1nnc(N[C@H]2CNC[C@@H](F)C2)n2cccc12 [Compound I-575],100 to 300
6,OCCN1CCC[C@@H](Nc2nnc(-c3ccc(Cl)cc3C(F)F)c3cccn23)C1 [Compound I-506],10 to 100
7,Cc1cc(F)c(-c2nnc(N[C@H]3C[C@@](C)(O)C3)n3cccc23)c(OC(F)F)c1 [Compound I-465],100 to 300
8,CC1(O)CCCC(Nc2nnc(-c3ccc(C(F)(F)F)cc3O)c3cccn23)C1 (stereo not drawn) [Compound I-450],10 to 100
9,OCCN1CCC[C@@H](Nc2nnc(-c3ccc(C(F)(F)F)cc3OC(F)F)c3cnccc23)C1 [Compound I-238],10 to 100
10,C[C@@H](O)CNc1nnc(-c2c(O)cc(C3CC3)cc2F)c2cccn12 [Compound I-496],10 to 100
11,Oc1cc(Br)ccc1-c1nnc(N[C@@H]2CCCOC2)n2nccc12 [Compound I-547],10 to 100
12,"OCCN1CCC[C@@H](Nc2nnc(-c3ccc(C(F)(F)F)cc3O)c3c2CCCC3)C1 [Compound I-62, 2-[4-[[(3R)-1-(2-hydroxyethyl)-3-piperidyl]amino]-5,6,7,8-tetrahydrophthalazin-1-yl]-5-(trifluoromethyl)phenol]",< 1
13,OCCN1CCC[C@@H](Nc2nnc(-c3c(O)cc(C(F)(F)F)cc3F)c3cccn23)C1 [Compound I-415],1 to 10
14,CCN1CCC[C@@H](Nc2nnc(-c3ccc(OC(F)(F)F)cc3O)c3cccn23)C1 [Compound I-609],1 to 10
15,C[C@]1(O)C[C@@H](Nc2nnc(-c3ccc(Cl)cc3O)c3cncn23)C1 [Compound I-549],1 to 10
16,Cc1cc(O)c(-c2nnc(N[C@@H]3CCCN(C)C3)c3ncccc23)c(F)c1 [Compound I-304],< 1
17,CN1C[C@H](F)C[C@@H](Nc2nnc(-c3ccc(Cl)cc3O)c3cncn23)C1 [Compound I-557],1 to 10
18,CN1CCC(c2ccc(-c3nnc(N[C@@H]4CCCN(C)C4)c4ccccc34)c(O)c2)C1 (stereo partly drawn) [Compound I-107],10 to 100
19,FC(F)Oc1cc(C(F)(F)F)ccc1-c1nnc(N[C@@H]2CCCN(C3CCOCC3)C2)n2cccc12 [Compound I-326],< 1
20,CN1C[C@H](F)C[C@@H](Nc2nnc(-c3ccc(C(F)(F)F)cc3O)c3cccn23)C1 [Compound I-410],1 to 10
21,COc1cc(Cl)ccc1-c1nnc(N[C@@H]2CCCN(C)C2)n2cncc12 [Compound I-383],1 to 10
22,CN1C[C@H](F)C[C@@H](Nc2nnc(-c3ccc(OC(F)(F)F)cc3O)c3cccn23)C1 [Compound I-409],1 to 10
23,CC(=O)N1CCCC(Nc2nnc(-c3ccc(C(F)(F)F)cc3O)c3ccccc23)C1 (stereo not drawn) [Compound I-64],10 to 100

row,Compound,IC50 [nM]
1,CN1CCC[C@@H](Oc2nnc(-c3ccc(C(F)(F)F)cc3O)c3ccccc23)C1 [Compound I-29],1 to 10
2,Cc1cc(O)c(-c2nnc(N[C@@H]3CCCN(C4CCOC4)C3)n3cccc23)c(F)c1 (stereo partly drawn) [Compound I-489],1 to 10
3,CN(C)CC1CCN(c2nnc(-c3ccc(C(F)(F)F)cc3O)c3ccccc23)C1 (stereo not drawn) [Compound I-203],10 to 100
4,Oc1cc(C(F)(F)F)ccc1-c1nnc(O[C@@H]2CCCNC2)c2ccccc12 [Compound I-21],10 to 100
5,Cc1cc(O)c(-c2nnc(NC[C@@H](C)O)n3cccc23)c(F)c1 [Compound I-499],10 to 100
6,CC(C)(O)CN1CCC[C@@H](Nc2nnc(-c3ccc(C(F)(F)F)cc3C(F)(F)F)c3cccn23)C1 [Compound I-470],10 to 100
7,CCN1CCC[C@@H](Nc2nnc(-c3ccc(C(F)(F)F)cc3OC(F)F)c3cccn23)C1 [Compound I-335],< 1
8,Cc1cc(F)c(-c2nnc(N[C@@H]3CCCN(CCO)C3)n3cccc23)c(OC(F)F)c1 [Compound I-463],10 to 100
9,CN1CCC[C@@H](Nc2nnc(-c3ccc(Cl)cc3OC(F)F)c3c2CCC3)C1 [Compound I-241],10 to 100
10,CN1CCC[C@@H](Nc2nnc(-c3ccc(C4CC4)cc3C(F)(F)F)c3ccncc23)C1 [Compound I-158],< 1
11,"Cc1ccc(-c2nnc(N[C@@H]3CCCN(C)C3)n3cccc23)c(C(F)F)c1 [Compound I-425, 1-[2-(Difluoromethyl)-4-methyl-phenyl]-N-[(3R)-1-methyl-3-piperidyl]pyrrolo[1,2-d][1,2,4]triazin-4-amine]",10 to 100
12,CC(C)N1CCC[C@@H](Nc2nnc(-c3ccc(C(F)(F)F)cc3OC(F)F)c3cccn23)C1 [Compound I-493],1 to 10
13,CN1CCC[C@H](Nc2nnc(-c3ccc(-c4ncco4)cc3O)c3ccncc23)C1 [Compound I-176],1 to 10
14,CCN1CCC[C@@H](Nc2nnc(-c3ccc(Cl)cc3C(F)F)c3cccn23)C1 [Compound I-505],10 to 100
15,CN1CCC[C@@H](Nc2nnc(-c3ccc(C(F)(F)F)cc3OC3COC3)c3cnccc23)C1 [Compound I-188],10 to 100
16,Cc1cc(O)c(-c2nnc(N[C@@H]3CCCOC3)n3cccc23)c(F)c1 [Compound I-421],1 to 10
17,Cc1cc(Cl)cc(C)c1-c1nnc(N[C@@H]2CCCN(C)C2)c2cnccc12 [Compound I-218],< 1
18,CCN1CCC[C@@H](Nc2nnc(-c3c(O)cc(C)cc3F)c3cccn23)C1 [Compound I-498],< 1
19,Oc1cc(C(F)(F)F)ccc1-c1nnc(N[C@@H]2CC[C@@H](O)C2)n2cccc12 [Compound I-449],10 to 100
20,Oc1cc(C(F)(F)F)ccc1-c1nnc(N[C@@H]2CCCN(CCCF)C2)c2cnccc12 [Compound I-294],< 1
21,COc1cc(C(F)(F)F)ccc1-c1nnc(N[C@@H]2CCCN(C)C2)c2cnccc12 [Compound I-119],1 to 10
22,CN1CCC[C@@H](Nc2nnc(-c3ccc(C(F)(F)F)cc3O)c3c2N(C)CCC3)C1 [Compound I-154],1 to 10
23,COc1ccc(-c2nnc(N[C@@H]3CCCNC3)c3cc(C)nn23)c(O)c1 [Compound I-339],100 to 300

row,Compound,IC50 [nM]
1,Oc1cc(Cl)ccc1-c1nnc(N[C@@H]2CCCOC2)n2cccc12 [Compound I-402],10 to 100
2,CN(C)C1CCCN(c2nnc(-c3ccc(C(F)(F)F)cc3O)c3cnccc23)C1 (stereo not drawn) [Compound I-152],1 to 10
3,CN1CCC[C@@H](Nc2nnc(-c3ccc(C(F)(F)F)cc3NS(C)(=O)=O)c3ccccc23)C1 [Compound I-124],1 to 10
4,COc1ccc(-c2nnc(N[C@@H]3CCCN(C)C3)n3cccc23)c(OC(F)F)c1 [Compound I-471],1 to 10
5,CN1CCC[C@@H](Nc2nnc(-c3ccc(C4CC4)cc3OC(F)F)c3ccncc23)C1 [Compound I-247],1 to 10
6,CCN1C[C@H](O)C[C@@H](Nc2nnc(-c3ccc(OC(F)(F)F)cc3O)c3c(F)ccn23)C1 [Compound I-605],100 to 300
7,CN1CCC[C@@H](Nc2nnc(-c3ccc(C(F)(F)F)cc3O)c3cc(F)ccc23)C1 [Compound I-9],1 to 10
8,C[C@H](O)CNc1nnc(-c2c(O)cc(C3CC3)cc2F)c2cccn12 [Compound I-500],10 to 100
9,CC(C)N1CCC[C@@H](Nc2nnc(-c3ccc(C(F)(F)F)cc3O)c3ccncc23)C1 [Compound I-295],< 1
10,CN1CCC[C@@H](Nc2nnc(-c3ccc(C(F)(F)F)cc3O)c3sccc23)C1 [Compound I-4],1 to 10
11,CN1CCOCC(Nc2nnc(-c3ccc(C(F)(F)F)cc3O)c3cnccc23)C1 (stereo not drawn) [Compound I-260],10 to 100
12,Cc1cc2c(N[C@@H]3CCCN(C)C3)nnc(-c3ccc(C(F)(F)F)cc3O)n2n1 [Compound I-336],10 to 100
13,C[C@]1(O)C[C@@H](Nc2nnc(-c3ccc(C(F)(F)F)cc3OC(F)F)c3c(F)ccn23)C1 [Compound I-525],10 to 100
14,COc1ccc(-c2nnc(N[C@@H]3CCCN(C)C3)n3cccc23)c(C(F)(F)F)c1 [Compound I-370],1 to 10
15,[2H]C([2H])([2H])Oc1cc(O)c(-c2nnc(N[C@@H]3CCCN(C)C3)n3cccc23)c(F)c1 [Compound I-513],< 1
16,CCN1CCC[C@H]1CNc1nnc(-c2c(O)cc(C)cc2F)c2cccn12 [Compound I-582],1 to 10
17,Cc1cc(C)c(-c2nnc(N[C@@H]3CCCN(C)C3)n3cccc23)c(O)c1 [Compound I-477],1 to 10
18,CCN1C[C@H](F)C[C@@H](Nc2nnc(-c3ccc(C(F)(F)F)cc3OC(F)F)c3cccn23)C1 [Compound I-538],1 to 10
19,OCCN1CCC[C@@H](Nc2nnc(-c3ccc(C(F)(F)F)cc3O)c3cncn23)C1 [Compound I-350],1 to 10
20,CN1CCC[C@@H](Nc2nnc(-c3c(O)cccc3F)c3ccncc23)C1 [Compound I-72],1 to 10
21,CCN1CCC[C@@H](Nc2nnc(-c3ccc(C(F)(F)F)cc3O)c3cccn23)C1 [Compound I-479],< 1
22,Oc1cc(C(F)(F)F)ccc1-c1nnc(N[C@@H]2CCCOC2)n2cccc12 [Compound I-401],100 to 300

# Same assay, conditions: THP-1 cells, 100 ng/mL PMA 24 h, compound 20 h, 2.5 μM Nigericin 3 h; read-out: IC50 IL-1β Inhibition
row,Compound,IC50 [nM]
1,Cc1cc2c(-c3ccc(C4CC4)cc3OC(F)(F)F)nnc(N[C@@H]3CCCN(C)C3)n2n1 [Compound I-418],1 to 10
